Results as given in ChEMBL document CHEMBL4390707, “Synthesis and comparison of substituted 1,2,3-dithiazole and 1,2,3-thiaselenazole as inhibitors of the feline immunodeficiency virus (FIV) nucleocapsid protein as a model for HIV infection” (Bioorg Med Chem Lett, 2019).

Legend:
[1] = Cytotoxicity against cat FL-4 cells measured after 7 days by MTT assay; assay type: cell-based, Felis catus
[2] = Therapeutic index, ratio of CC50 for cat FL-4 cells to EC50 for inhibition of nucleocapsin protein in FIV infected in cat FL-4 cells; assay type: toxicity, cell-based; details: FL-4 cells (FIV infected for EC50), read-out: Ratio CC50/EC50
[3] = Inhibition of nucleocapsin protein in FIV infected in cat FL-4 cells assessed as reduction in viral RNA replication measured after 7 days by qRT-PCR analysis; assay type: cell-based; details: Feline immunodeficiency virus, FL-4, 168 h
[4] = Cytotoxicity against cat CRFK cells measured after 24 hrs by MTT assay; assay type: cell-based, Felis catus

Row | EC50 [3] [µM] | Structure (SMILES) | CC50 at 168 h [1] [µM] | selectivity ratio [2] | CC50 at 24 h [4] [µM]
1 | 1.5 | N#Cc1c2nssc-2c(Cl)c1Cl | 39 | 26.8 | > 100
2 | 2.7 | Cc1cn([C@H]2C[C@H](N=[N+]=[N-])[C@@H](CO)O2)c(=O)[nH]c1=O [ZIDOVUDINE] | > 100 | > 37 | > 100
3 | 1.6 | Clc1c2nssc-2c(Cl)c1Cl | 6.1 | 3.8 | 68
4 | 3 | ClC1=C2SSN=C2c2ccccc2C(Cl)=C1Cl | 9.3 | 3.1 | > 100
5 | 25.7 | c1ccc(-c2c3ssnc-3c3ccccc23)cc1 | > 100 | > 4 | > 100
6 | 0.31 | CCOC(=O)c1c2nssc-2c(Cl)c1Cl | 3.5 | 11.4 | > 100
7 | 4 | c1ccc2c(c1)N=C1SSN=C1O2 | 57 | 14 | > 100
8 | 1.4 | Clc1c2ssnc-2c2ccccc12 | 49 | 36.3 | > 100

Row | Structure (SMILES) | EC50 [3] [µM] | CC50 at 168 h [1] [µM] | selectivity ratio [2] | CC50 at 24 h [4] [µM]
9 | Clc1c2s[se]nc-2c2ccccc12 | 1.2 | 5.7 | 4.6 | 98
10 | CCOC(=O)c1c2n[se]sc-2c(Cl)c1Cl | 0.082 | 5.1 | 61.9 | > 100
11 | Clc1c2n[se]sc-2c(Cl)c1Cl | 1.2 | 6.5 | 5.4 | 62
12 | c1ccc(-c2c3s[se]nc-3c3ccccc23)cc1 | 0.26 | 50 | 194 | 56
13 | N#Cc1c2n[se]sc-2c(Cl)c1Cl | 3.8 | 18 | 4.7 | > 100
14 | ClC1=C2S[Se]N=C2c2ccccc2C(Cl)=C1Cl | 0.25 | 0.83 | 3.3 | > 100
15 | c1ccc2c(c1)N=C1S[Se]N=C1O2 | 0.24 | 5.8 | 24 | > 100
